The target of assay [1] is T1, His-tagged wild-type dUSP (Drosophila melanogaster, UniProt P20153).
T1 construct: His tag; made in house; host or cells: bacteria (pET32EK vector)
T1 sequence (P20153 1-508): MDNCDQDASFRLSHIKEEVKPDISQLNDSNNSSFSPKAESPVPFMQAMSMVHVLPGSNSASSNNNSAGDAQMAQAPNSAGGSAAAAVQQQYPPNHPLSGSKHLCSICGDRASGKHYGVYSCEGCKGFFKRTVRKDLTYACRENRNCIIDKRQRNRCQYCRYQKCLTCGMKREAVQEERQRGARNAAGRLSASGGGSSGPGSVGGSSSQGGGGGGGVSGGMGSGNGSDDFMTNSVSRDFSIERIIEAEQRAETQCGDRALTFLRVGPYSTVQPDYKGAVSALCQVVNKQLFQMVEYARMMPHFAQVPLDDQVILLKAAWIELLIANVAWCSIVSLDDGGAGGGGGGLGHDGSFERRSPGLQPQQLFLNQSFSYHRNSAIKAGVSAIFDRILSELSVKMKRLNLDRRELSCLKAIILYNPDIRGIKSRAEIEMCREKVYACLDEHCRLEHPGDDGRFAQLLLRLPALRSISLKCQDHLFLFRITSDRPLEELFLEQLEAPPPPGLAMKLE
Briefly: Intrinsic tryptophan fluorescence ligand-binding assay, wild-type dUSP. Particulars: excitation 290 nm, emission 340 nm; 0.5 μm receptor. How it is done: The homodimer-enriched fraction of bacterial recombinant His-dUSP fusion protein was purified by nickel resin selection, elution with imidazole, centrifugal concentration, and then gel permeation chromatography (Superdex 200) with procedures and chemical sources exactly as already described previously Jones et al. (2000) Insect Biochem. Mol. Biol. 30, 671-679. The homodimer-enriched fraction of the purified His-USP fusion protein was raised to 2 ml of NaCl and a final concentration of 0.5 μm. For a fluorescence-based ligand-binding assay based on intrinsic tryptophan fluorescence Jones et al. (2001) Insect Biochem. Mol. Biol. 32, 33-49; Jones et al (1998) Biochem. J. 335, 79-84; 79-84; Jones et al. (2000) Biochem. J. 346, 233-240; Jones et al (1997) Proc. Natl. Acad. Sci. USA 94, 13499-13503, ligand or ethanol carrier was added and the receptor preparation excited at 290 nm and monitored for emission at 340 nm, until the signal from the receptor had stabilized. Fluorescence was measured three times for each sample, with standard deviation typically smaller than the graphical plotted datum point. Each fluorescence experiment was replicated on three or more independent occasions, each time with similar results.
The ability of the wild-type dUSP and dominant negative, ligand-binding pocket mutant dUSP to bind methyl epoxyfarnesoate was tested.

The subject of a further assay is DR12 motif. Description: Electrophoretic mobility shift assay of recombinant dUSP on DR12 probe. It counts as binding. Particulars: 500 nm His-tagged receptor. An excerpt: Nuclear extracts were isolated from Sf9 cells as previously described Jones et al. (2001) Insect Biochem. Mol. Biol. 32, 33-49; Jones et al (1998) Biochem. J. 335, 79-84; 79-84; Jones et al. (2000) Biochem. J. 346, 233-240. For the DR12 probe, the double stranded DR12 oligonucleotide (sequence as shown above) was 5′ end-labelled with ^32P by T4 polynucleotide kinase (New England Biolabs Inc.), and then purified from a 20% native polyacrylamide gel. The same double stranded DR12 oligonucleotide was used in 100-fold excess as a self competitor. For the 4DR12Core probe, the 4DR12Core sequence was liberated from the vector as a 148-bp ClaI/HindIII fragment, and was 5′ end-labelled with ^32P and purified. The same, unlabelled fragment was used at 100-fold excess as a self competitor. As a negative control for specificity in gel shifts, the 36 bp BglII/KpnI polylinker region fragment of the pGL3 vector was liberated and recovered from low melting point agarose gels and used as a 100 nonself competitor (sequence: […], SEQ ID NO: 17). […]
In addition, both receptor preparations bound to the probe similarly in part as monomer and in part as homodimer. […] Thus, any difference detected in ligand binding of the two receptors is most reasonably inferred as arising from differences in the architecture inside the cavity of the ligand-binding pocket due to the C472A/H475L point mutations.

As to `CC(C)=CCCC(C)=CCCC(C)=CCO` [farnesol], the “effect on receptor intrinsic fluorescence (ligand binding), wild-type dUSP” value in assay [1] is given as “do not have that effect”.

B1: wild-type dUSP: wild type Drosophila melanogaster Ultraspiracle receptor, SEQ ID NO: 2 (protein)
chain: MDNCDQDASFRLSHIKEEVKPDISQLNDSNNSSFSPKAESPVPFMQAMSMVHVLPGSNSASSNNNSAGDAQMAQAPNSAGGSAAAAVQQQYPPNHPLSGSKHLCSICGDRASGKHYGVYSCEGCKGFFKRTVRKDLTYACRENRNCIIDKRQRNRCQYCRYQKCLTCGMKREAVQEERQRGARNAAGRLSASGGGSSGPGSVGGSSSQGGGGGGGVSGGMGSGNGSDDFMTNSVSRDFSIERIIEAEQRAETQCGDRALTFLRVGPYSTVQPDYKGAVSALCQVVNKQLFQMVEYARMMPHFAQVPLDDQVILLKAAWIELLIANVAWCSIVSLDDGGAGGGGGGLGHDGSFERRSPGLQPQQLFLNQSFSYHRNSAIKAGVSAIFDRILSELSVKMKRLNLDRRELSCLKAIILYNPDIRGIKSRAEIEMCREKVYACLDEHCRLEHPGDDGRFAQLLLRLPALRSISLKCQDHLFLFRITSDRPLEELFLEQLEAPPPPGLAMKLE
modifications: Drosophila melanogaster
As for B1, the “binding to DR12 motif in gel shift” value with DR12 motif is “similarly bound to a DR12 motif”.

Source of the values: patent publication US7259254B2, “Mutants and assay system to identify USP/RXR ligands” (University of Kentucky Research Foundation, priority 2002, dated 2007).
